# Results published in patent US20230263822A1, “MODULATION OF FACTOR 11 EXPRESSION” (Ionis Pharmaceuticals, Inc., priority 2008, published 2023).
# Experiment: Hematology assays in cynomolgus monkeys (Example 45)
# Assay type: in vivo
# Conditions: for MCH / MCHC / MCV / RBC count / WBC count / hematocrit / hemoglobin: escalating dose regimen
# Experimental: Groups, each consisting of two male and three female monkeys, were injected subcutaneously with ISIS 416838, ISIS 416850, ISIS 416858, ISIS 416864, or ISIS 417002 in escalating doses. Antisense oligonucleotide was administered to the monkeys at 5 mg/kg three times per a week for week 1; 5 mg/kg twice per week for weeks 2 and 3; 10 mg/kg three times per week for week 4; 10 mg/kg twice per week for weeks 5 and 6; 25 mg/kg three times per week for week 7; and 25 mg/kg twice per week for weeks 8, 9, 10, 11, and 12. One control group, consisting of two male and three female monkeys, was injected subcutaneously with PBS according to the same dosing regimen. An additional experimental group, consisting of two male and three female monkeys, was injected subcutaneously with ISIS 416850 in a chronic, lower dose regimen. Antisense oligonucleotide was administered to the monkeys at 5 mg/kg three times per week for week 1; 5 mg/kg twice per week for week 2 and 3; 10 mg/kg three times per week for week 4; and 10 mg/kg twice per week for weeks 5 to 12. Body weights were measured weekly. Blood samples were collected 14 days and 5 days before the start of treatment and subsequently once per week for Factor 11 protein activity analysis in plasma, fibrinogen measurement, PT and aPTT measurements, bleeding times, and measurement of various hematologic factors. On day 85, the monkeys were euthanized by exsanguination while under deep anesthesia, and organs harvested for further analysis.
# The ISIS oligonucleotide, ISIS 416850, given with the chronic dose regimen is distinguished from the other oligonucleotides with an asterisk (*).
substance,measurement,setting,value
"ISIS 417002: MOE gapmer, nucleobases 1275 to 1318 of SEQ ID NO: 1 (Table 8) (antisense GGTGCACAGTTTCTGGCAGG; MOE gapmer, wing and gap sizes not given here)",MCH,Day 64,22 pg
same,MCH,Day 71,23 pg
same,MCH,Day 78,23 pg
same,MCH,Day 85,23 pg
same,basophils,day 8,0.3%
same,eosinophils,day 8,0.2%
same,lymphocytes,day 8,50%
same,monocytes,day 8,3.3%
same,neutrophils,day 8,46%
same,platelet count,day 8,435000 µL⁻¹
same,reticulocytes,day 8,1.1%
same,MCH,day 8,23 pg
same,MCHC,day 8,29 g/dL
same,MCV,day 8,79 fL
same,RBC count,day 8,5.6e+06 µL⁻¹
same,WBC count,day 8,10000 µL⁻¹
same,hematocrit,day 8,44%
same,hemoglobin,day 8,12.8 g/dL
same,basophils,day 15,0.2%
same,eosinophils,day 15,0.1%
same,lymphocytes,day 15,40%
same,monocytes,day 15,2.3%
same,neutrophils,day 15,57%
same,platelet count,day 15,410000 µL⁻¹
same,reticulocytes,day 15,1.1%
same,MCH,day 15,23 pg
same,MCHC,day 15,31 g/dL
same,MCV,day 15,76 fL
same,RBC count,day 15,5.4e+06 µL⁻¹
same,WBC count,day 15,10000 µL⁻¹
same,hematocrit,day 15,40%
same,hemoglobin,day 15,12.3 g/dL
same,basophils,day 22,0.2%
same,eosinophils,day 22,0.3%
same,lymphocytes,day 22,41%
same,monocytes,day 22,3.1%
same,neutrophils,day 22,55%
same,platelet count,day 22,377000 µL⁻¹
same,reticulocytes,day 22,1.2%
same,MCH,day 22,23 pg
same,MCHC,day 22,29 g/dL
same,MCV,day 22,79 fL
same,RBC count,day 22,5.2e+06 µL⁻¹
same,WBC count,day 22,10000 µL⁻¹
same,hematocrit,day 22,41%
same,hemoglobin,day 22,12.1 g/dL
same,basophils,day 29,0.2%
same,eosinophils,day 29,0.3%
same,lymphocytes,day 29,50%
same,monocytes,day 29,3.5%
same,neutrophils,day 29,45%
same,platelet count,day 29,410000 µL⁻¹
same,reticulocytes,day 29,1.6%
same,MCH,day 29,23 pg
same,MCHC,day 29,29 g/dL
same,MCV,day 29,81 fL
same,RBC count,day 29,5.2e+06 µL⁻¹
same,WBC count,day 29,10000 µL⁻¹
same,hematocrit,day 29,42%
same,hemoglobin,day 29,12.0 g/dL
same,basophils,day 36,0.2%
same,eosinophils,day 36,0.2%
same,lymphocytes,day 36,35%
same,monocytes,day 36,2.6%
same,neutrophils,day 36,61%
same,platelet count,day 36,415000 µL⁻¹
same,reticulocytes,day 36,1.3%
same,MCH,day 36,23 pg
same,MCHC,day 36,30 g/dL
same,MCV,day 36,78 fL
same,RBC count,day 36,5.4e+06 µL⁻¹
same,WBC count,day 36,11000 µL⁻¹
same,hematocrit,day 36,42%
same,hemoglobin,day 36,12.5 g/dL
same,basophils,day 43,0.3%
same,eosinophils,day 43,0.2%
same,lymphocytes,day 43,39%
same,monocytes,day 43,2.8%
same,neutrophils,day 43,57%
same,platelet count,day 43,393000 µL⁻¹
same,reticulocytes,day 43,1.1%
same,MCH,day 43,23 pg
same,MCHC,day 43,30 g/dL
same,MCV,day 43,77 fL
same,RBC count,day 43,5.4e+06 µL⁻¹
same,WBC count,day 43,10000 µL⁻¹
same,hematocrit,day 43,41%
same,hemoglobin,day 43,12.3 g/dL
same,basophils,day 50,0.3%
same,eosinophils,day 50,0.1%
same,lymphocytes,day 50,34%
same,monocytes,day 50,3.1%
same,neutrophils,day 50,61%
same,platelet count,day 50,389000 µL⁻¹
same,reticulocytes,day 50,1.6%
same,MCH,day 50,23 pg
same,MCHC,day 50,29 g/dL
same,MCV,day 50,80 fL
same,RBC count,day 50,5.4e+06 µL⁻¹
same,WBC count,day 50,13000 µL⁻¹
same,hematocrit,day 50,43%
same,hemoglobin,day 50,12.3 g/dL
same,basophils,day 57,0.3%
same,eosinophils,day 57,0.2%
same,lymphocytes,day 57,40%
same,monocytes,day 57,3.6%
same,neutrophils,day 57,54%
same,platelet count,day 57,403000 µL⁻¹
same,reticulocytes,day 57,4.6%
same,MCH,day 57,23 pg
same,MCHC,day 57,29 g/dL
same,MCV,day 57,80 fL
same,RBC count,day 57,4.9e+06 µL⁻¹
same,WBC count,day 57,12000 µL⁻¹
same,hematocrit,day 57,38%
same,hemoglobin,day 57,11.3 g/dL
same,basophils,day 64,0.2%
same,eosinophils,day 64,0.2%
same,lymphocytes,day 64,39%
same,monocytes,day 64,4.0%
same,neutrophils,day 64,55%
same,platelet count,day 64,436000 µL⁻¹
same,reticulocytes,day 64,1.3%
same,MCHC,day 64,30 g/dL
same,MCV,day 64,76 fL
same,RBC count,day 64,5.4e+06 µL⁻¹
same,WBC count,day 64,11000 µL⁻¹
same,hematocrit,day 64,41%
same,hemoglobin,day 64,12.2 g/dL
same,basophils,day 71,0.3%
same,eosinophils,day 71,0.3%
same,lymphocytes,day 71,59%
same,monocytes,day 71,4.7%
same,neutrophils,day 71,34%
same,platelet count,day 71,490000 µL⁻¹
same,reticulocytes,day 71,1.3%
same,MCHC,day 71,29 g/dL
same,MCV,day 71,78 fL
same,RBC count,day 71,5.5e+06 µL⁻¹
same,WBC count,day 71,12000 µL⁻¹
same,hematocrit,day 71,43%
same,hemoglobin,day 71,12.5 g/dL
same,basophils,day 78,0.3%
same,eosinophils,day 78,0.1%
same,lymphocytes,day 78,41%
same,monocytes,day 78,4.7%
same,neutrophils,day 78,51%
same,platelet count,day 78,432000 µL⁻¹
same,reticulocytes,day 78,1.3%
same,MCHC,day 78,31 g/dL
same,MCV,day 78,75 fL
same,RBC count,day 78,5.4e+06 µL⁻¹
same,WBC count,day 78,9000 µL⁻¹
same,hematocrit,day 78,40%
same,hemoglobin,day 78,12.4 g/dL
same,basophils,day 85,0.3%
same,eosinophils,day 85,0.2%
same,lymphocytes,day 85,56%
same,monocytes,day 85,5.3%
same,neutrophils,day 85,36%
same,platelet count,day 85,418000 µL⁻¹
same,reticulocytes,day 85,1.4%
same,MCHC,day 85,30 g/dL
same,MCV,day 85,76 fL
same,RBC count,day 85,5.4e+06 µL⁻¹
same,WBC count,day 85,10000 µL⁻¹
same,hematocrit,day 85,41%
same,hemoglobin,day 85,12.2 g/dL
same,basophils,day −5,0.3%
same,eosinophils,day −5,0.3%
same,lymphocytes,day −5,53%
same,monocytes,day −5,3.2%
same,neutrophils,day −5,43%
same,platelet count,day −5,466000 µL⁻¹
same,reticulocytes,day −5,0.8%
same,MCH,day −5,24 pg
same,MCHC,day −5,30 g/dL
same,MCV,day −5,80 fL
same,RBC count,day −5,5.6e+06 µL⁻¹
same,WBC count,day −5,14000 µL⁻¹
same,hematocrit,day −5,45%
same,hemoglobin,day −5,13.2 g/dL
same,basophils,day −14,0.3%
same,eosinophils,day −14,0.3%
same,lymphocytes,day −14,53%
same,monocytes,day −14,3.0%
same,neutrophils,day −14,43%
same,platelet count,day −14,442000 µL⁻¹
same,reticulocytes,day −14,0.9%
same,MCH,day −14,24 pg
same,MCHC,day −14,30 g/dL
same,MCV,day −14,79 fL
same,RBC count,day −14,5.6e+06 µL⁻¹
same,WBC count,day −14,13000 µL⁻¹
same,hematocrit,day −14,44%
same,hemoglobin,day −14,13.0 g/dL
